Assays:
[1] = Head-to-tail native chemical ligation in two-module microfluidic flow: SEAon peptide amide rearranged to SEAE thioester (pH 1, TCEP, 60 min, 90 or 65 C), then MPAA (0.4 M)/Na2HPO4 (0.2 M) pH 7.3 cyclisation onto N-terminal Cys, 4 min; settings: 30-membered ring, water (phosphate buffer, MPAA, TCEP; decane segmented carrier), 0.6 mM, 37.0 °C, 0.067 h, 2 steps, scale: %
[2] = Head-to-tail native chemical ligation in two-module microfluidic flow: SEAon peptide amide rearranged to SEAE thioester (pH 1, TCEP, 60 min, 90 or 65 C), then MPAA (0.4 M)/Na2HPO4 (0.2 M) pH 7.3 cyclisation onto N-terminal Cys; settings: water (phosphate buffer, MPAA, TCEP; decane segmented carrier; 6 M Gn.HCl for 4l-p), 0.6 mM, 37.0 °C, 2 steps
[3] = the molecule shown is the open-chain precursor, 54-membered ring, 0.25 h

Compound: CC[C@H](C)[C@@H]1NC(=O)[C@H](CS)NC(=O)[C@H](CC(C)C)NC(=O)CNC(=O)[C@H](Cc2c[nH]cn2)NC(=O)[C@H](C(C)C)NC(=O)[C@@H]2CCCN2C(=O)CNC(=O)[C@H](CC(=O)O)NC(=O)[C@H](CC(C)C)NC1=O [H-CILDGPVHGL-SEAon (via SEAE thioester)]
- ring closure, conversion by HPLC ([1]; from CC[C@H](C)[C@H](NC(=O)[C@@H](N)CS)C(=O)N[C@@H](CC(C)C)C(=O)N[C@@H](CC(=O)O)C(=O)NCC(=O)N1CCC[C@H]1C(=O)N[C@H](C(=O)N[C@@H](Cc1c[nH]cn1)C(=O)NCC(=O)N[C@@H](CC(C)C)C(=O)SCCNCCS)C(C)C): 80
- ring closure, yield over several steps ([2]; from CC[C@H](C)[C@H](NC(=O)[C@@H](N)CS)C(=O)N[C@@H](CC(C)C)C(=O)N[C@@H](CC(=O)O)C(=O)NCC(=O)N1CCC[C@H]1C(=O)N[C@H](C(=O)N[C@@H](Cc1c[nH]cn1)C(=O)NCC(=O)N[C@@H](CC(C)C)C(=O)SCCNCCS)C(C)C, 30-membered ring, 0.067 h): 64%

Compound: CC[C@H](C)[C@@H]1NC(=O)[C@H](CS)NC(=O)[C@H](C(C)C)NC(=O)CNC(=O)[C@H](Cc2c[nH]cn2)NC(=O)[C@H](C(C)C)NC(=O)[C@@H]2CCCN2C(=O)CNC(=O)[C@H](CC(=O)O)NC(=O)[C@H](CC(C)C)NC1=O [H-CILDGPVHGV-SEAon (via SEAE thioester)]
- ring closure, conversion by HPLC ([1]; from CC[C@H](C)[C@H](NC(=O)[C@@H](N)CS)C(=O)N[C@@H](CC(C)C)C(=O)N[C@@H](CC(=O)O)C(=O)NCC(=O)N1CCC[C@H]1C(=O)N[C@H](C(=O)N[C@@H](Cc1c[nH]cn1)C(=O)NCC(=O)N[C@H](C(=O)SCCNCCS)C(C)C)C(C)C): 43
- ring closure, yield over several steps ([2]; from CC[C@H](C)[C@H](NC(=O)[C@@H](N)CS)C(=O)N[C@@H](CC(C)C)C(=O)N[C@@H](CC(=O)O)C(=O)NCC(=O)N1CCC[C@H]1C(=O)N[C@H](C(=O)N[C@@H](Cc1c[nH]cn1)C(=O)NCC(=O)N[C@H](C(=O)SCCNCCS)C(C)C)C(C)C, 30-membered ring, 0.067 h): 37%

Compound: CC[C@H](C)[C@@H]1NC(=O)CNC(=O)[C@H](Cc2c[nH]cn2)NC(=O)[C@H](C(C)C)NC(=O)CNC(=O)[C@H](CCC(=O)O)NC(=O)[C@H](CCCCN)NC(=O)[C@H](CC(C)C)NC(=O)[C@H]([C@@H](C)CC)NC(=O)[C@H](CS)NC1=O [H-CILKEGVHGI-SEAon (via SEAE thioester)]
- ring closure, conversion by HPLC ([1]; from CC[C@H](C)[C@H](NC(=O)[C@@H](N)CS)C(=O)N[C@@H](CC(C)C)C(=O)N[C@@H](CCCCN)C(=O)N[C@@H](CCC(=O)O)C(=O)NCC(=O)N[C@H](C(=O)N[C@@H](Cc1c[nH]cn1)C(=O)NCC(=O)N[C@H](C(=O)SCCNCCS)[C@@H](C)CC)C(C)C): 96
- ring closure, yield over several steps ([2]; from CC[C@H](C)[C@H](NC(=O)[C@@H](N)CS)C(=O)N[C@@H](CC(C)C)C(=O)N[C@@H](CCCCN)C(=O)N[C@@H](CCC(=O)O)C(=O)NCC(=O)N[C@H](C(=O)N[C@@H](Cc1c[nH]cn1)C(=O)NCC(=O)N[C@H](C(=O)SCCNCCS)[C@@H](C)CC)C(C)C, 30-membered ring, 0.067 h): 51%

Compound: CC[C@H](C)[C@@H]1NC(=O)[C@H](CS)NC(=O)[C@@H]2CCCN2C(=O)CNC(=O)[C@H](Cc2c[nH]cn2)NC(=O)[C@H](C(C)C)NC(=O)CNC(=O)[C@H](CCC(=O)O)NC(=O)[C@H](CCCCN)NC(=O)[C@H](CC(C)C)NC1=O [H-CILKEGVHGP-SEAon (via SEAE thioester)]
- ring closure, conversion by HPLC ([1]; from CC[C@H](C)[C@H](NC(=O)[C@@H](N)CS)C(=O)N[C@@H](CC(C)C)C(=O)N[C@@H](CCCCN)C(=O)N[C@@H](CCC(=O)O)C(=O)NCC(=O)N[C@H](C(=O)N[C@@H](Cc1c[nH]cn1)C(=O)NCC(=O)N1CCC[C@H]1C(=O)SCCNCCS)C(C)C): 70
- ring closure, yield over several steps ([2]; from CC[C@H](C)[C@H](NC(=O)[C@@H](N)CS)C(=O)N[C@@H](CC(C)C)C(=O)N[C@@H](CCCCN)C(=O)N[C@@H](CCC(=O)O)C(=O)NCC(=O)N[C@H](C(=O)N[C@@H](Cc1c[nH]cn1)C(=O)NCC(=O)N1CCC[C@H]1C(=O)SCCNCCS)C(C)C, 30-membered ring, 0.067 h): 38%

Compound: CC[C@H](C)[C@@H]1NC(=O)[C@H](CS)NC(=O)[C@H]([C@@H](C)O)NC(=O)CNC(=O)[C@H](Cc2c[nH]cn2)NC(=O)[C@H](C(C)C)NC(=O)CNC(=O)[C@H](CCC(=O)O)NC(=O)[C@H](CCCCN)NC(=O)[C@H](CC(C)C)NC1=O [H-CILKEGVHGT-SEAon (via SEAE thioester)]
- ring closure, conversion by HPLC ([1]; from CC[C@H](C)[C@H](NC(=O)[C@@H](N)CS)C(=O)N[C@@H](CC(C)C)C(=O)N[C@@H](CCCCN)C(=O)N[C@@H](CCC(=O)O)C(=O)NCC(=O)N[C@H](C(=O)N[C@@H](Cc1c[nH]cn1)C(=O)NCC(=O)N[C@H](C(=O)SCCNCCS)[C@@H](C)O)C(C)C): 73
- ring closure, yield over several steps ([2]; from CC[C@H](C)[C@H](NC(=O)[C@@H](N)CS)C(=O)N[C@@H](CC(C)C)C(=O)N[C@@H](CCCCN)C(=O)N[C@@H](CCC(=O)O)C(=O)NCC(=O)N[C@H](C(=O)N[C@@H](Cc1c[nH]cn1)C(=O)NCC(=O)N[C@H](C(=O)SCCNCCS)[C@@H](C)O)C(C)C, 30-membered ring, 0.067 h): 49%

Compound: CC[C@H](C)[C@@H]1NC(=O)[C@H](CS)NC(=O)[C@H](C(C)C)NC(=O)CNC(=O)[C@H](Cc2c[nH]cn2)NC(=O)[C@H](C(C)C)NC(=O)CNC(=O)[C@H](CCC(=O)O)NC(=O)[C@H](CCCCN)NC(=O)[C@H](CC(C)C)NC1=O [H-CILKEGVHGV-SEAon (via SEAE thioester)]
- ring closure, conversion by HPLC ([1]; from CC[C@H](C)[C@H](NC(=O)[C@@H](N)CS)C(=O)N[C@@H](CC(C)C)C(=O)N[C@@H](CCCCN)C(=O)N[C@@H](CCC(=O)O)C(=O)NCC(=O)N[C@H](C(=O)N[C@@H](Cc1c[nH]cn1)C(=O)NCC(=O)N[C@H](C(=O)SCCNCCS)C(C)C)C(C)C): 73
- ring closure, yield over several steps ([2]; from CC[C@H](C)[C@H](NC(=O)[C@@H](N)CS)C(=O)N[C@@H](CC(C)C)C(=O)N[C@@H](CCCCN)C(=O)N[C@@H](CCC(=O)O)C(=O)NCC(=O)N[C@H](C(=O)N[C@@H](Cc1c[nH]cn1)C(=O)NCC(=O)N[C@H](C(=O)SCCNCCS)C(C)C)C(C)C, 30-membered ring, 0.067 h): 46%

Compound: CC[C@H](C)[C@@H]1NC(=O)[C@H](CS)NC(=O)[C@H](C(C)C)NC(=O)CNC(=O)[C@H](Cc2c[nH]cn2)NC(=O)[C@H](C(C)C)NC(=O)[C@@H]2CCCN2C(=O)[C@H](CCC(=O)O)NC(=O)[C@H](CCCCN)NC(=O)[C@H](CC(C)C)NC1=O [H-CILKEPVHGV-SEAon (via SEAE thioester)]
- ring closure, conversion by HPLC ([1]; from CC[C@H](C)[C@H](NC(=O)[C@@H](N)CS)C(=O)N[C@@H](CC(C)C)C(=O)N[C@@H](CCCCN)C(=O)N[C@@H](CCC(=O)O)C(=O)N1CCC[C@H]1C(=O)N[C@H](C(=O)N[C@@H](Cc1c[nH]cn1)C(=O)NCC(=O)N[C@H](C(=O)SCCNCCS)C(C)C)C(C)C): 56
- ring closure, yield over several steps ([2]; from CC[C@H](C)[C@H](NC(=O)[C@@H](N)CS)C(=O)N[C@@H](CC(C)C)C(=O)N[C@@H](CCCCN)C(=O)N[C@@H](CCC(=O)O)C(=O)N1CCC[C@H]1C(=O)N[C@H](C(=O)N[C@@H](Cc1c[nH]cn1)C(=O)NCC(=O)N[C@H](C(=O)SCCNCCS)C(C)C)C(C)C, 30-membered ring, 0.067 h): 46%

Compound: H-CQPWSSMIPHEHSFLPSSYRGKDLQENY-SEAon (via SEAE thioester)
- ring closure, yield over several steps ([2]; the molecule shown is the open-chain precursor, 84-membered ring, 0.25 h): 41%

Compound: H-CRAIATRGFARALARRGV-SEAon (via SEAE thioester)
- ring closure, yield over several steps ([2]; the molecule shown is the open-chain precursor, 54-membered ring, 0.067 h): 37%

Compound: H-CRCICTRGFCRCLCRRGV-SEAon (via SEAE thioester)
- ring closure, yield over several steps [2, 3]: 29%

Compound: H-CRCLCRRGVCRCICTRGF-SEAon (via SEAE thioester)
- ring closure, yield over several steps [2, 3]: 23%

Compound: H-CTRGFCRCLCRRGVCRCI-SEAon (via SEAE thioester)
- ring closure, yield over several steps [2, 3]: 34%
